As usually defined, the melting point is the temperature of the solid-liquid transition. The compound `CO/N=C(C)/C(=N/N=C/c1ccccc1-n1c(OC)nn(C)c1=O)C1CC1` gave a melting point of 146 to 148 °C.

Consider `CON=C(C(C)=NN=Cc1ccccc1-n1c(OC)nn(C)c1=O)c1cccc(C(F)(F)F)c1`, for which the melting point is 157 to 161 °C.

These data come from patent US6436981B1 (dated 2002).
